In experiment [1] the test system is neuropathic pain (CHUNG), tactile stimulation. The experiment is described as follows: Neuropathic pain (CHUNG) test, tactile stimulation on lesioned paw. The class given is in vivo, rat. The conditions noted are these: for FORCE INDUCING PAW-WITHDRAWAL, % change: compared with lesioned control; for FORCE INDUCING PAW-WITHDRAWAL, mean ± s.e.m.: lesioned paw. The text has this:
(§1) The following Tables 8 and 9 show the effects of harkoseride (hereinafter referred tows SPM 927), carbamazepine, levetiracetam, gabapentin and morphine in the neuropathic pain (CHUNG) test in the rat. Eight (8) rats per group were used.

In experiment [2] the test system is neuropathic pain (CHUNG), thermal stimulation. Description: Neuropathic pain (CHUNG) test, thermal stimulation on lesioned paw. The class given is in vivo, rat.
From the text: as §1

Experiment [3] has as its system formalin-induced nociception (paw licking). Description: Subchronic inflammatory nociception in mice (formalin test). The class given is in vivo. The conditions noted are these: for nociceptive threshold, early phase: 0-5 min after formalin (acute pain); for nociceptive threshold, late phase: 20-30 min after formalin (subchronic inflammatory pain). Here is the method: Subchronic inflammatory nocicpetion in mice was induced by the subplantar injection of formalin (0.02 ml of a 5% solution). Nociceptive behaviour (paw licking) was measured and quantified between 0 and 5 min (acute pain) and between 20 and 30 min (subchronic inflammatory pain) after formalin.
(§2) Drugs and experimental design: SPM 927 and GBP were suspended in 1% methylcellulose and administered i.p. at doses of 10 mg/kg, 20 mg/kg and 40 mg/kg. Pre-treatment time was 30 min before pain measurement. One group of animals served as controls and consequently received an injection of solvent (10 ml/kg) and another group of animals received a reference compound (Carrageenan test: 10 mg/kg indomethacin; Formalin test: 10 mg/kg morphine). Each compound was tested in a separate experiment and each experiment included a control and a reference group. 10 rats per group were used in the Carrageenan test and 6 mice per group in the formalin test.

In experiment [4] the test system is Carrageenan-induced mechanical hyperalgesia. The experiment is described as follows: Carrageenan-induced mechanical hyperalgesia, paw pressure (Randall-Sellito) test. The class given is in vivo, rats. The conditions noted are these: for nociceptive threshold: inflamed paw, 3 h after carrageenan. Here is the method:
Carrageenan-induced mechanical hyperalgesia in rats was induced by subplantar injection of a 0.1 ml of a 2% carrageenan suspension and measured 3 h afterwards by the paw pressure (Randall-Sellito) test.
as §2

Where [5] appears, read: 16 mg/kg i.p. -30 min, compared with lesioned control.
The mark [6] stands for this setting: 16 mg/kg i.p. -30 min, lesioned paw.
The mark [7] stands for this setting: 32 mg/kg i.p. -30 min, compared with lesioned control.
Setting [8] is: 32 mg/kg i.p. -30 min, lesioned paw.
Where [9] appears, read: 64 mg/kg i.p. -30 min, compared with lesioned control.
Where [10] appears, read: 64 mg/kg i.p. -30 min, lesioned paw.
[11] abbreviates: 10 mg/kg i.p. 30 min before measurement.

Where “and” joins values, the source holds several entries; their conditions need not be identical. Identical values can stand only once. Marks after values point to notes of the source that are not given here.

The values below come from patent US20100099770A1, “METHOD FOR TREATING DIABETIC PERIPHERAL NEUROPATHIC PAIN” (SCHWARZ PHARMA AG, priority 2001, published 2010).

Consider `NC(=O)N1c2ccccc2C=Cc2ccccc21` [Carbamazepine, carbamazepine], for which the figures for the “FORCE INDUCING PAW-WITHDRAWAL, % change” value in experiment [1] (16 mg/kg i.p. -30 min), in experiment [1] (32 mg/kg i.p. -30 min) and in experiment [1] (64 mg/kg i.p. -30 min) were “+21% (b)”, “+121% (b)” and “+125% (b)”, respectively. Moreover, the “FORCE INDUCING PAW-WITHDRAWAL, mean ± s.e.m.” value in experiment [1] (16 mg/kg i.p. -30 min) was 21.0 ± 2.3 NS (b) g; in experiment [1] (32 mg/kg i.p. -30 min), 38.4 ± 8.1 (b) g; in experiment [1] (64 mg/kg i.p. -30 min) it was 39.2 ± 9.1 (b) g. Further, the “PAW-WITHDRAWAL LATENCY, % change” value is reported as “+118% (b)” in experiment [2] (setting [5]), “+39% (b)” in experiment [2] (setting [7]) and “+77% (b)” in experiment [2] (setting [9]). For the same compound, the “PAW-WITHDRAWAL LATENCY, mean ± s.e.m.” value in experiment [2] (setting [6]) is recorded as 35.6 ± 4.1 (b) sec; in experiment [2] (setting [8]) it was 22.7 ± 4.3 NS (b) sec; in experiment [2] (setting [10]) it was 28.8 ± 6.9 NS (b) sec.

For the compound `NCC1(CC(=O)O)CCCCC1` [GBP, gabapentin], the “nociceptive threshold, early phase” value in experiment [3] (10 mg/kg i.p.) worked out at 98 ± 20 s; in experiment [3] (20 mg/kg i.p.), 102 ± 17 s; in experiment [3] (40 mg/kg i.p.) it was 72 ± 10 s. Moreover, the “nociceptive threshold, late phase” value is 133 ± 30 s in experiment [3] (10 mg/kg i.p.), 118 ± 13 s in experiment [3] (20 mg/kg i.p.) and 73 ± 13 s in experiment [3] (40 mg/kg i.p.). The “effect on formalin-induced nociceptive response (in words)” value in experiment [3] (10, 20, 40 mg/kg i.p.) is given as “slightly but not significantly inhibited”. Also, the “FORCE INDUCING PAW-WITHDRAWAL, % change” value in experiment [1] (32 mg/kg i.p. -30 min) is −1% (b); in experiment [1] (64 mg/kg i.p. -30 min), “+35% (b)”; in experiment [1] (128 mg/kg i.p. -30 min) it was “+93% (b)”. In addition, the “FORCE INDUCING PAW-WITHDRAWAL, mean ± s.e.m.” value in experiment [1] (32 mg/kg i.p. -30 min) was 17.2 ± 3.0 NS (b) g; in experiment [1] (64 mg/kg i.p. -30 min), 23.5 ± 4.2 NS (b) g; in experiment [1] (128 mg/kg i.p. -30 min), 33.6 ± 6.7 (b) g. For the same compound, the nociceptive threshold was 254 ± 39 in experiment [4] (setting [11]), 296 ± 31 in experiment [4] (20 mg/kg i.p. 30 min before measurement) and 282 ± 33 in experiment [4] (40 mg/kg i.p. 30 min before measurement). For the same compound, the “effect on Carrageenan-induced mechanical hyperalgesia (in words)” value in experiment [4] (10, 20, 40 mg/kg i.p.) is “no significant effect”. Also, the “PAW-WITHDRAWAL LATENCY, % change” value is “+18% (b)” in experiment [2] (setting [7]); “+75% (b)” in experiment [2] (setting [9]); “+66% (b)” in experiment [2] (128 mg/kg i.p. -30 min, compared with lesioned control). The “PAW-WITHDRAWAL LATENCY, mean ± s.e.m.” value in experiment [2] (setting [8]) is 19.3 ± 3.6 NS (b) sec; in experiment [2] (setting [10]), 28.5 ± 5.4 NS (b) sec; in experiment [2] (128 mg/kg i.p. -30 min, lesioned paw) it was 27.1 ± 5.2 NS (b) sec.

For `COc1ccc2c(c1)c(CC(=O)O)c(C)n2C(=O)c1ccc(Cl)cc1` [Indomethacin, indomethacin], the nociceptive threshold in experiment [4] (setting [11]) is 370 ± 15^b and 384 ± 11^b.

With `CC[C@@H](C(N)=O)N1CCCC1=O` [Levetiracetam, levetiracetam], the “FORCE INDUCING PAW-WITHDRAWAL, % change” value in experiment [1] (16 mg/kg i.p. -30 min) is on record as “+32% (b)”; in experiment [1] (32 mg/kg i.p. -30 min) it was “+44% (b)”; in experiment [1] (64 mg/kg i.p. -30 min), “+14% (b)”. Moreover, the “FORCE INDUCING PAW-WITHDRAWAL, mean ± s.e.m.” value is on record as 23.0 ± 4.0 NS (b) g in experiment [1] (16 mg/kg i.p. -30 min), 25.0 ± 5.2 NS (b) g in experiment [1] (32 mg/kg i.p. -30 min) and 19.8 ± 4.1 NS (b) g in experiment [1] (64 mg/kg i.p. -30 min). In addition, the “PAW-WITHDRAWAL LATENCY, % change” value in experiment [2] (setting [5]) was “+17% (b)”; in experiment [2] (setting [7]) it was “+5% (b)”; in experiment [2] (setting [9]), “+63% (b)”. Further, the “PAW-WITHDRAWAL LATENCY, mean ± s.e.m.” value in experiment [2] (setting [6]) is 19.0 ± 3.6 NS (b) sec; in experiment [2] (setting [8]), 17.1 ± 2.9 NS (b) sec; in experiment [2] (setting [10]), 26.6 ± 6.0 NS (b) sec.

Consider `CN1CC[C@]23c4c5ccc(O)c4O[C@H]2[C@@H](O)C=C[C@H]3[C@H]1C5` [Morphine, morphine], for which the “nociceptive threshold, early phase” value in experiment [3] (10 mg/kg i.p.) was 8 ± 6^a s and 6 ± 3^a s. In experiment [1] (16 mg/kg i.p. -30 min), the “FORCE INDUCING PAW-WITHDRAWAL, % change” value is “+164% (b)” and the “FORCE INDUCING PAW-WITHDRAWAL, mean ± s.e.m.” value is 45.9 ± 8.8 (b) g. For the same compound, the “PAW-[…], % change” value in experiment [2] (setting [5]) is listed as “+160% (b)”. In experiment [2] (setting [6]), the “PAW-[…], mean ± s.e.m.” value is listed as 42.4 ± 1.9 (b) sec.
